The results in this text go back to patent US9107905B2 (Agency for Science, Technology and Research, priority 2006, dated 2015).

For one experiment, the system named is C. albicans yeast cells. Kind of experiment: hyphal induction assay (germ tube formation, yeast-hypha switch). It counts as cell-based, Candida albicans. The settings on record: for EC50: read-out: I50 (hyphal induction); for hypha-inducing activity: result in words.
Experiment [1] has as its target GST-LRR fusion (LRR domain of CaCdc35p) (Candida albicans, UniProt A0A1D8PR83). The experiment can be described thus: tryptophan fluorescence quenching of recombinant LRR domain. Type of experiment: binding. The settings on record: for Kd: nonlinear regression of fluorescence quenching, read-out: equilibrium dissociation constant (Kd); for fluorescence quenching: result in words. The source says: Since specific binding of a molecule to a tryptophan-containing protein may cause concentration-dependent quenching; of tryptophan fluorescence, fluorescence spectroscopy was used to measure the intensity of tryptophan fluorescence of the recombinant LRR domains in the presence of different concentrations of MLADiQ. […] The fluorescence spectrum of GST was not affected by any of the compounds used.

In experiment [2] the test system is GST-LRR fusion protein (LRR domain of CaCdc35p). The experiment can be described thus: circular dichroism (CD) spectroscopy of recombinant LRR domain. It counts as binding, Candida albicans. The source says: Next, the possibility that MLA 71Q may directly bind to the LRR domain of CaCdc35p was explored. The wild-type LRR domain and that of Irr9mu were expressed in E. coli as glutathione-S-transferase (GST) fusions and purified to high homogeneity. Then circular dichroism (CD) spectroscopy was used to detect possible direct interaction between the LRR domain and MLADIQ. CD is a reliable tool in detecting conformational changes in a protein as a result of ligand binding (Woody, R. W. (1995). Methods Enzymol. 246, 34-71).
For orientation: Circular dichroism is the unequal absorption of left and right circularly polarised light.

The mark [3] stands for this setting: synthetic compounds and reference inducer.

Like-named read-outs stand apart in the source and are kept apart here.

GST-LRR fusion (LRR domain of CaCdc35p), sequence (A0A1D8PR83 entry or part of it): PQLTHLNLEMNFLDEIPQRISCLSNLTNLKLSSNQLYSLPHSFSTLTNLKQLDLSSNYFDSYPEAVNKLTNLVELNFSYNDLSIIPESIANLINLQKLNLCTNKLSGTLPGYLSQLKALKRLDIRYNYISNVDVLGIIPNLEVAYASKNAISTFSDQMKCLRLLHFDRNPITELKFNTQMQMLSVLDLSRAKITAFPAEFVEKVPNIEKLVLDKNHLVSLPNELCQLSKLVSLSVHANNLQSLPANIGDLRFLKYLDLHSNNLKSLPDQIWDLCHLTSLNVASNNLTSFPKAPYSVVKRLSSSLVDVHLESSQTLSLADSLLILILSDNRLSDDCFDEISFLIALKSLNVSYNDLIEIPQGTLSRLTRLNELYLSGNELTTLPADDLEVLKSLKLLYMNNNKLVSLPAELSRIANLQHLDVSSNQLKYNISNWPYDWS

As for `C[C@H](NC(=O)[C@@H](C)O[C@H]1[C@H](O)[C@@H](CO)OC(O)[C@@H]1N)C(=O)O` (stereo partly drawn), the EC50 with C. albicans yeast cells (synthetic compounds) is about 200 µM. For the same molecule, in experiment [1], the Kd (usually a measure of binding affinity in units of concentration) was 1.67 ± 0.13 µM and the fluorescence quenching entry was “lower levels of fluorescence quenching”. In experiment [2], the “shift of the ellipticity values of the CD spectra” value (“shift” for short) is “weaker but consistent spectrum shift”.

As for `C[C@@H](O[C@H]1[C@H](O)[C@@H](CO)OC(O)[C@@H]1N)C(=O)O` (stereo partly drawn) [muramic, muramic acid, reference compound], the hypha-inducing activity entry in the experiment on C. albicans yeast cells is “Neither muramic nor N-acetylmuramic acid was active”.

As for `CC(O)C(=O)O` (stereo not drawn) [lactic acid, reference compound], the hypha-inducing activity result with C. albicans yeast cells is given as “none of these compounds was found to have appreciable hypha-inducing activity”.

Consider `OCC(O)CO` [glycerol, reference compound], for which, in the experiment on C. albicans yeast cells, the hypha-inducing activity result is recorded as “none of these compounds was found to have appreciable hypha-inducing activity”.

For the molecule `CC(=O)N[C@H]1C(O)O[C@H](CO)[C@@H](O)[C@@H]1O` (stereo partly drawn) [NAG, N-Acetylglucosamine, reference compound], the EC50 in the experiment on C. albicans yeast cells (setting [3]) was about 3000 µM. For the same molecule, in experiment [1], the Kd was found to be 6.8 ± 0.32 µM and the fluorescence quenching result was “lower levels of fluorescence quenching”. Moreover, the “shift” value in experiment [2] is on record as “weaker but consistent spectrum shift”.

Turning to `CC(=O)N[C@H]1C(O)O[C@H](CO)[C@@H](O)[C@@H]1O[C@H](C)C(=O)O` (stereo partly drawn) [N-acetylmuramic acid, reference compound], the hypha-inducing activity result in the experiment on C. albicans yeast cells is on record as “Neither muramic nor N-acetylmuramic acid was active”.

Turning to `O=C(CO)[C@@H](O)[C@H](O)[C@H](O)CO` [fructose, reference compound], the hypha-inducing activity result in the experiment with C. albicans yeast cells is listed as “none of these compounds was found to have appreciable hypha-inducing activity”.

Take `CC(=O)NC1C(O)OC(CO)C(O)C1OC(C)C(=O)NC(C)C(=O)O` [NMLA, N-acetylmurmyl-L-alanine]: the EC50 in the experiment with C. albicans yeast cells (setting [3]) is about 8000 µM.

In the case of `CC(=O)NC1C(O)OC(CO)C(O)C1OC(C)C(=O)NC(C)C(=O)NC(CCC(=O)O)C(N)=O` [NMLADiQ, N-acetylmuramyl-L-alanyl-D isoglutamine], in the experiment with C. albicans yeast cells, the “concentration above which the activity started to drop significantly” value was “above 20 mM”. In addition, the “highest germ tube formation induced” value with C. albicans yeast cells (at increased concentrations) is at most 60%. Moreover, the “times less active than MLADiQ” value in the experiment on C. albicans yeast cells (from I50) amounted to 600 times. Moreover, the EC50 in the experiment on C. albicans yeast cells (setting [3]) was about 6000 µM. In experiment [1], the Kd worked out at 5.26 ± 0.47 µM and the fluorescence quenching entry is “lower levels of fluorescence quenching”. The “shift” value in experiment [2] is recorded as “weaker but consistent spectrum shift”.
